In patent US7253158B2, “Sulfonamides” (Hoffmann-La Roche Inc., priority 2004, dated 2007) one finds IC50 data, which are given here for 29 molecules.

In general, IC50 refers to the concentration that gives 50% inhibition.

In the first assay the target is T1, γ-secretase (Homo sapiens, UniProt P49768).
T1 construct: uses a HEK293 membrane fraction as a source of γ-secretase; endogenous in cells; host or cells: HEK293 (microsomal membrane fraction, solubilised in 0.25% CHAPSO)
The assay can be described thus: in vitro γ-secretase assay (HEK293 membrane fraction, recombinant APP substrate, Abeta ELISA). In kind it is biochemical. To be noted: γ-secretase inhibition. The source says:
Description of γ-Secretase Assay
The activity of test compounds can be evaluated in assays which measure the proteolytic cleavage of suitable substrates by γ-secretase activity. These can be cellular assays where e.g., a substrate of the γ-secretase is fused in its cytoplasmic domain to a transcription factor. Cells are transfected with this fusion gene and a reporter gene, e.g., firefly luciferase, which expression is enhanced by the transcription factor. Cleavage of the fused substrate by γ-secretase will lead to expression of the reporter gene which can be monitored in appropriate assays. The γ-secretase activity can also be determined in cell-free in vitro asays where e.g., a cell lysate containing the γ-secretase complex is incubated with a suitable APP-derived substrate which is cleaved to the Abeta peptides. The amount of produced peptides can be determined with specific ELISA assays. Cell lines of neuronal origin secrete Abeta peptides which can be measured with the specific ELISA assay. Treatment with compounds which inhibit γ-secretase leads to a reduction of secreted Abeta thus providing a measure of inhibition.
The in vitro assay of γ-secretase activity uses a HEK293 membrane fraction as a source of γ-secretase and a recombinant APP substrate. Latter consist of the C-terminal 100 amino acids of human APP fused to a 6× Histidin tail for purification which is expressed in E. coli in a regulatable expression vector, e.g. pEt15. This recombinant protein corresponds to the truncated APP fragment which results after […] of the extracellular domain and which constitutes the γ-secretase substrate. […] Hek293 cells are mechanically disrupted and the microsomal fraction is isolated by differential centrifugation.
(ELISA stands for enzyme-linked immunosorbent assay.)
`COC(=O)c1ccc(CN(C2CCCCNC2=O)S(=O)(=O)c2ccc(Cl)cc2)c(F)c1` (racemic) [Example 203, rac-4-{[(4-Chloro-benzenesulfonyl)-(2-oxo-azepan-3-yl)-amino]-methyl}-3-fluoro-benzoic acid methyl ester]: the IC50 turned out to be 190 nM.

Still in this assay, the particulars now being: γ-secretase inhibition, table head prints none.
In the case of `COc1ccc(CN(C2CCCCNC2=O)S(=O)(=O)c2ccc(Br)cc2)cc1F` (racemic) [Example 28, rac-4-Bromo-N-(3-fluoro-4-methoxy-benzyl)-N-(2-oxo-azepan-3-yl)-benzenesulfonamide], the IC50 worked out at 150 nM.

Consider `CC(C)C1CCNC(=O)C(N(Cc2ccc(C(=O)NC3CC3)cc2)S(=O)(=O)c2ccc(Cl)cc2)C1` (racemic) [Example 43, rac-4-{[(4-Chloro-benzenesulfonyl)-(5-isopropyl-2-oxo-azepan-3-yl)-amino]-methyl}-N-cyclopropyl-benzamide], for which the IC50 is 30 nM. The same measure, in the same setting: next, `COC(=O)c1ccc(CN(C2CCCCNC2=O)S(=O)(=O)c2ccc(Cl)cc2)cc1` (racemic) [Example 57, rac-4-{[(4-Chloro-benzenesulfonyl)-(2-oxo-azepan-3-yl)-amino]-methyl}-benzoic acid methyl ester]: 130 nM; `O=C(NC1CC1)c1ccc(CN(C2CCCCNC2=O)S(=O)(=O)c2ccc(Cl)cc2)cc1` (racemic) [Example 75, rac-4-{[(4-Chloro-benzenesulfonyl)-(2-oxo-azepan-3-yl)-amino]-methyl}-N-cyclopropyl-benzamide]: 190 nM; `COC(=O)c1ccc(CN(C2CC(C)(C)CCNC2=O)S(=O)(=O)c2ccc(Cl)cc2)cc1` (racemic) [Example 138, Rac-4-{[(4-Chloro-benzenesulfonyl)-(5,5-dimethyl-2-oxo-azepan-3-yl)-amino]-methyl}-benzoic acid methyl ester]: 10 nM.

`CC1(C)CCNC(=O)C(N(Cc2ccc(C(=O)NCCF)cc2)S(=O)(=O)c2ccc(Cl)cc2)C1` (racemic) [Example 140, rac-4-{[(4-Chloro-benzenesulfonyl)-(5,5-dimethyl-2-oxo-azepan-3-yl)-amino]-methyl}-N-(2-fluoro-ethyl)-benzamide]: the IC50 was found to be 20 nM. Consider `CC1(C)CCNC(=O)C(N(Cc2ccc(C(=O)NCC(F)(F)F)cc2)S(=O)(=O)c2ccc(Cl)cc2)C1` (racemic) [Example 141, rac-4-{[(4-Chloro-benzenesulfonyl)-(5,5-dimethyl-2-oxo-azepan-3-yl)-amino]-methyl}-N-(2,2,2-trifluoro-ethyl)-benzamide], for which the IC50 was determined as 20 nM.

As to `CC1(C)CCNC(=O)C(N(Cc2ccc(C(=O)N[C@@H]3C[C@@H]3F)cc2)S(=O)(=O)c2ccc(Cl)cc2)C1` (mixture of isomers) [Example 142, rac-4-{[(4-Chloro-benzenesulfonyl)-(5,5-dimethyl-2-oxo-azepan-3-yl)-amino]-methyl}-N-((1R,2S)-2-fluoro-cyclopropyl)-benzamide], the IC50 amounted to 20 nM.

For the molecule `CC1(C)CCNC(=O)C(N(Cc2ccc(C(=O)NCCO)cc2)S(=O)(=O)c2ccc(Cl)cc2)C1` (racemic) [Example 143, rac-4-{[(4-Chloro-benzenesulfonyl)-(5,5-dimethyl-2-oxo-azepan-3-yl)-amino]-methyl}-N-(2-hydroxy-ethyl)-benzamide], the IC50 amounted to 40 nM.

Regarding `CC1(C)CCNC(=O)C(N(Cc2ccc(C(=O)NC3CCCC3)cc2)S(=O)(=O)c2ccc(Cl)cc2)C1` (racemic) [Example 144, rac-4-{[(4-Chloro-benzenesulfonyl)-(5,5-dimethyl-2-oxo-azepan-3-yl)-amino]-methyl}-N-cyclopentyl-benzamide], the IC50 was 50 nM.

In the case of `CNC(=O)c1ccc(CN(C2CC(C)(C)CCNC2=O)S(=O)(=O)c2ccc(Cl)cc2)cc1` (racemic) [Example 145, rac-4-{[(4-Chloro-benzenesulfonyl)-(5,5-dimethyl-2-oxo-azepan-3-yl)-amino]-methyl}-N-methyl-benzamide], the IC50 amounted to 10 nM.

As for `CC1(C)CCNC(=O)C(N(Cc2ccc(C(N)=O)cc2)S(=O)(=O)c2ccc(Cl)cc2)C1` (racemic) [Example 146, rac-4-{[(4-Chloro-benzenesulfonyl)-(5,5-dimethyl-2-oxo-azepan-3-yl)-amino]-methyl}-benzamide], the IC50 is 20 nM. On the same count and under the same terms, next, `CC1(C)CCNC(=O)C(N(Cc2ccc(C(=O)NCc3ccccc3)cc2)S(=O)(=O)c2ccc(Cl)cc2)C1` (racemic) [Example 147, rac-N-Benzyl-4-{[(4-chloro-benzenesulfonyl)-(5,5-dimethyl-2-oxo-azepan-3-yl)-amino]-methyl}-benzamide]: 20 nM; `COC(=O)CNC(=O)c1ccc(CN(C2CC(C)(C)CCNC2=O)S(=O)(=O)c2ccc(Cl)cc2)cc1` (racemic) [Example 148, rac-(4-{[(4-Chloro-benzenesulfonyl)-(5,5-dimethyl-2-oxo-azepan-3-yl)-amino]-methyl}-benzoylamino)-acetic acid methyl ester]: 20 nM.

For the molecule `CC1(C)CCNC(=O)C(N(Cc2ccc(C(=O)NCCN3CCOCC3)cc2)S(=O)(=O)c2ccc(Cl)cc2)C1` (racemic) [Example 149, rac-4-{[(4-Chloro-benzenesulfonyl)-(5,5-dimethyl-2-oxo-azepan-3-yl)-amino]-methyl}-N-(2-morpholin-4-yl-ethyl)-benzamide], the IC50 worked out at 150 nM. Still for that read-out and setting: the same measure for `CC1(C)CCNC(=O)C(N(Cc2ccc(-c3nn[nH]n3)cc2)S(=O)(=O)c2ccc(Cl)cc2)C1` (racemic) [Example 150, rac-4-Chloro-N-(5,5-dimethyl-2-oxo-azepan-3-yl)-N-[4-(2H-tetrazol-5-yl)-benzyl]-benzenesulfonamide]: 100 nM; for `CC(=O)Nc1ccc(CN(C2CC(C)(C)CCNC2=O)S(=O)(=O)c2ccc(Cl)cc2)cc1` (racemic) [Example 152, rac-N-(4-{[(4-Chloro-benzenesulfonyl)-(5,5-dimethyl-2-oxo-azepan-3-yl)-amino]-methyl}-phenyl)-acetamide]: 20 nM. Regarding `CCOC(=O)CC(=O)Nc1ccc(CN(C2CCCCNC2=O)S(=O)(=O)c2ccc(Cl)cc2)cc1` (racemic) [Example 165, Rac-N-(4-{[(4-Chloro-benzenesulfonyl)-(2-oxo-azepan-3-yl)-amino]-methyl}-phenyl)-malonamic acid ethyl ester], the IC50 came to 270 nM. Still for that read-out and setting: next, `O=C1NCCCCC1N(Cc1ccc(C(F)F)cc1)S(=O)(=O)c1ccc(Cl)cc1` (racemic) [Example 172, Rac-4-Chloro-N-(4-difluoromethyl-benzyl)-N-(2-oxo-azepan-3-yl)-benzenesulfonamide]: 230 nM. As to `NC(=O)c1ccc(CN([C@@H]2CCCCNC2=O)S(=O)(=O)c2ccc(Cl)cc2)cc1` [Example 2, 4-{[(4-Chloro-benzenesulfonyl)-((R)-2-oxo-azepan-3-yl)-amino]-methyl}-benzamide], the IC50 came to 150 nM. With `CC(C)C1CCNC(=O)C(N(Cc2ccc(C(N)=O)cc2)S(=O)(=O)c2ccc(Cl)cc2)C1` (centres unmarked) [Example 4, 4-{[(4-Chloro-benzenesulfonyl)-(5-isopropyl-2-oxo-azepan-3-yl)-amino]-methyl}-benzamide], the IC50 worked out at 260 nM. On to `COC(=O)c1ccc(CN([C@@H]2CCCCNC2=O)S(=O)(=O)c2ccc(Cl)cc2)c(F)c1` [Example 34, 4-{[(4-Chloro-benzenesulfonyl)-((R)-2-oxo-azepan-3-yl)-amino]-methyl}-3-fluoro-benzoic acid methyl ester], for which the IC50 turned out to be 140 nM. For `CCOC(=O)c1ccc(CN([C@@H]2CCCCNC2=O)S(=O)(=O)c2ccc(Cl)cc2)cc1` [Example 35, 4-{[(4-Chloro-benzenesulfonyl)-((R)-2-oxo-azepan-3-yl)-amino]-methyl}-benzoic acid ethyl ester], the IC50 stood at 90 nM.

Consider `COC(=O)c1ccc(C(C)N([C@@H]2CCCCNC2=O)S(=O)(=O)c2ccc(Cl)cc2)cc1` (stereo partly drawn) [Example 41, 4-{1-[(4-Chloro-benzenesulfonyl)-((R)-2-oxo-azepan-3-yl)-amino]-ethyl}-benzoic acid methyl ester], for which the IC50 was found to be 200 nM. On the same count and under the same terms, the same measure for `O=C1NCCCC[C@H]1N(Cc1ccc(-c2ncn[nH]2)cc1F)S(=O)(=O)c1ccc(Cl)cc1` [Example 56, 4-Chloro-N-[2-fluoro-4-(2H-[1,2,4]triazol-3-yl)-benzyl]-N-((R)-2-oxo-azepan-3-yl)-benzenesulfonamide]: 80 nM. Same read-out and setting: the same measure for `COc1ccc(CN([C@@H]2CCCCNC2=O)S(=O)(=O)c2ccc(Cl)cc2)c(F)c1` [Example 68, 4-Chloro-N-(2-fluoro-4-methoxy-benzyl)-N-((R)-2-oxo-azepan-3-yl)-benzenesulfonamide]: 120 nM. For the molecule `O=C(NC1CC1)c1ccc(CN([C@@H]2CCCCNC2=O)S(=O)(=O)c2ccc(C(F)(F)F)cc2)cc1` [Example 106, N-Cyclopropyl-4-{[((R)-2-oxo-azepan-3-yl)-(4-trifluoromethyl-benzenesulfonyl)-amino]-methyl}-benzamide], the half-inhibitory concentration (IC50) was determined as 260 nM. For `O=C(NC1CC1)c1ccc(CN([C@@H]2CCCCNC2=O)S(=O)(=O)c2ccc(Br)cc2)cc1` [Example 107, N-Cyclopropyl-4-{[((R)-2-oxo-azepan-3-yl)-(4-bromo-benzenesulfonyl)-amino]-methyl}-benzamide], the IC50 came to 290 nM.
